Article PMC10586506 (Drug Metabolism and Disposition, 2023)
pIC50: −log10 of the molar value. Where a name gives a salt, the structure may show the parent alone. Read-outs that look alike come from different tables or passages of the source.

Experiments:
human OCT3 = biological target: T1, human OCT3 (Homo sapiens, UniProt O75751); assay: OCT3 inhibition in HEK293-LV cells overexpressing the transporter; assay type: cell-based; conditions: for inhibition at 10 µM / inhibition at 100 µM: read-out: OCT3 (%) percent inhibition of transporter activity
T1 sequence (O75751 1-556): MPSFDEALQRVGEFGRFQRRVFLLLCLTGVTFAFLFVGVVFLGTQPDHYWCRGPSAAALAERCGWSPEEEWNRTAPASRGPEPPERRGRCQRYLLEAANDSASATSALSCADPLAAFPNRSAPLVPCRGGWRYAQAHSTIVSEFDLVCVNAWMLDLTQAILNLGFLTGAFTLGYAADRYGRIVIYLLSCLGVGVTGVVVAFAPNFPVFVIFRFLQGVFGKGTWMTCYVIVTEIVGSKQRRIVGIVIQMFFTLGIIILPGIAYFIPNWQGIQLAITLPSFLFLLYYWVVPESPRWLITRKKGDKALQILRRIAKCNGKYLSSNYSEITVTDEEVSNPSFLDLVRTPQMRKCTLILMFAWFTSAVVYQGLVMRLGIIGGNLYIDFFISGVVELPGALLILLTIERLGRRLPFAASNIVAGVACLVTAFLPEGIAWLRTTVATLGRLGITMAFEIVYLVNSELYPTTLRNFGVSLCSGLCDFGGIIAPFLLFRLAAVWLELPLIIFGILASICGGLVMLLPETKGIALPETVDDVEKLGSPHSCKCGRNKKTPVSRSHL

human PMAT = biological target: T2, human PMAT (Homo sapiens, UniProt Q7RTT9); assay: PMAT inhibition in HEK293-LV cells overexpressing the transporter; assay type: cell-based; conditions: for inhibition at 10 µM / inhibition at 100 µM: read-out: PMAT (%) percent inhibition of transporter activity
T2 sequence (Q7RTT9 1-530): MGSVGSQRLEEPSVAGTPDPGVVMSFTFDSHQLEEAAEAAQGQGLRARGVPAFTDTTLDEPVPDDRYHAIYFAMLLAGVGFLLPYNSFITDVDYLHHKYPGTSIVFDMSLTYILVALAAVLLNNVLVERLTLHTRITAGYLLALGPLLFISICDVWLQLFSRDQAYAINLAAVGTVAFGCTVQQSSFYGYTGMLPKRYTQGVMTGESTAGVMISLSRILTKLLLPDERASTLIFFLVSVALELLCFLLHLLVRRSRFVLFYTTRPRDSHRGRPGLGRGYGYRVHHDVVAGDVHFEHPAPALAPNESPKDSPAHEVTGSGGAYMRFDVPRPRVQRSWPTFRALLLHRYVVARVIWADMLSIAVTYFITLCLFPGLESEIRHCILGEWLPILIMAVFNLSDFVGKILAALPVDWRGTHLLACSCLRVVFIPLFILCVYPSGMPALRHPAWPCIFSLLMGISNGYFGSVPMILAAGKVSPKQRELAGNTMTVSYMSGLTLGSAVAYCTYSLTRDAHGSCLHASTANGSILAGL

human THTR2 = biological target: T3, human THTR2 (Homo sapiens, UniProt Q9BZV2); assay: THTR2 inhibition in HEK293-LV cells overexpressing the transporter; assay type: cell-based; conditions: for inhibition at 10 µM / inhibition at 100 µM: read-out: THTR2 (%) percent inhibition of transporter activity
T3 sequence (Q9BZV2 1-496): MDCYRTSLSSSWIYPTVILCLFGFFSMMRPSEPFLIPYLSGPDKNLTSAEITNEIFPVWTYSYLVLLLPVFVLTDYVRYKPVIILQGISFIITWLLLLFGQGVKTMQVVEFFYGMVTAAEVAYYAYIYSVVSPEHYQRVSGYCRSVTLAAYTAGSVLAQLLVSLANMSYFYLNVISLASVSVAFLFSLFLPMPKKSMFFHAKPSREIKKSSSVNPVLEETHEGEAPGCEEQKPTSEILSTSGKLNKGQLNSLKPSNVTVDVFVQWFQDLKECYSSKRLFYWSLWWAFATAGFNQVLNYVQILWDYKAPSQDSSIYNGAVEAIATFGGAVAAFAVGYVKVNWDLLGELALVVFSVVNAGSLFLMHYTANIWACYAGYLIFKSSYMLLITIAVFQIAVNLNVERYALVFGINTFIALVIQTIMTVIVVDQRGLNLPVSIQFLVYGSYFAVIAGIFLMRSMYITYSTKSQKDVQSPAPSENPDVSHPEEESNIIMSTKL

human OCT1 = conditions: ref Nguyen et al., 2021, cited from earlier work; for pIC50: read-out: IC50 OCT1, extract normalized to berberine
[1] = humans, single 2.7 g dose of goldenseal; ref Gupta et al., 2015; cited from earlier work
[2] = Oral metformin/oral inhibitor pharmacokinetic study in mice; conditions: for decrease in geometric mean metformin Cmax relative to vehicle: oral metformin 10 mg/kg with oral test article; for effect on metformin pharmacokinetics: oral metformin with oral test article
Caco-2 cell monolayers = conditions: cited from earlier work
[3] = humans; ref Nguyen et al., 2021; cited from earlier work

| Compound | inhibition at 10 µM (human OCT3) [%] | inhibition at 100 µM (human OCT3) [%] | inhibition at 10 µM (human PMAT) [%] | inhibition at 100 µM (human PMAT) [%] | inhibition at 10 µM (human THTR2) [%] | inhibition at 100 µM (human THTR2) [%] | pIC50 (human OCT1) | inhibition of OCT1 (in words) (human OCT1) | Cmax [1] [nM] | decrease in geometric mean metformin Cmax relative to vehicle [2] | effect on metformin pharmacokinetics [2] | inhibition of OCT3 (in words) (human OCT3) | inhibition of PMAT (in words) (human PMAT) | inhibition of THTR2 (in words) (human THTR2) | also measured |
| --- | --- | --- | --- | --- | --- | --- | --- | --- | --- | --- | --- | --- | --- | --- | --- |
| COc1ccc2c(c1OC)C(=O)O[C@@H]2[C@H]1c2cc3c(cc2CCN1C)OCO3 [(–)-β-hydrastine, (–)-β-Hydrastine] | 3 | 24 | -9 | 37 | 7 | -4 | 5.18 | only inhibited OCT1 | 1.75 | no effect | no effect |  |  |  |  |
| CN(C)C(=N)N=C(N)N [metformin, Metformin hydrochloride salt] |  |  |  |  |  |  |  |  |  |  |  |  |  |  | percent contribution of OCT1 to metformin uptake (Caco-2 cell monolayers; ref Han et al., 2015): 25%; percent contribution of PMAT to metformin uptake (Caco-2 cell monolayers; ref Han et al., 2015): 20%; percent contribution of SERT to metformin uptake (Caco-2 cell monolayers; ref Han et al., 2015): 20%; percent contribution of choline transporter to metformin uptake (Caco-2 cell monolayers; ref Han et al., 2015): 15%; percent contribution of passive diffusion to metformin uptake (Caco-2 cell monolayers; ref Han et al., 2015): 20%; percent contribution of OCT3 to metformin uptake (Caco-2 cell monolayers; ref Shirasaka et al., 2022): 10%; percent contribution of PMAT to metformin uptake (Caco-2 cell monolayers; ref Shirasaka et al., 2022): 10%; percent contribution of SERT to metformin uptake (Caco-2 cell monolayers; ref Shirasaka et al., 2022): 2%; percent contribution of THTR2 to metformin uptake (Caco-2 cell monolayers; ref Shirasaka et al., 2022): 22%; percent contribution of other (unidentified) transporters to metformin uptake (Caco-2 cell monolayers; ref Shirasaka et al., 2022): 1%; percent contribution of passive diffusion to metformin uptake (Caco-2 cell monolayers; ref Shirasaka et al., 2022): 55% |
| COc1ccc2cc3[n+](cc2c1OC)CCc1cc2c(cc1-3)OCO2 [Berberine, Berberine chloride hydrate] | 55 | 95 | 8 | 71 | -2 | 43 | 4.72 | inhibited | 470 | no effect | no effect | inhibited | inhibited | inhibited | IC50 of berberine alone relative to goldenseal extract (human OCT3; across OCT3, PMAT and THTR2, fold higher): 2.8- to 7.4 fold; estimated intestinal luminal inhibitor concentration [3]: 354 µM |
| CN1CCc2cc3c(cc2C1O)OCO3 (stereo not drawn) [Hydrastinine, Hydrastinine chloride monohydrate] | -5 | -3 | 11 | 43 | 2 | 19 |  | did not inhibit |  |  |  | did not inhibit | did not inhibit | did not inhibit |  |
